Measurements reported in PMC4818591 (ChemMedChem, 2015).
Read-outs that look alike come from different tables or passages of the source.

Legend:
Assay type in all cases: biochemical
[1] = biological target: HDAC3 (Homo sapiens, UniProt O15379); assay: HDAC3 isozyme inhibition; details: for SI HDAC3/6: selectivity index
[2] = biological target: HDAC2 (Homo sapiens, UniProt Q92769); assay: HDAC2 isozyme inhibition; details: for SI HDAC2/6: selectivity index
[3] = biological target: HDAC1 (Homo sapiens, UniProt Q13547); assay: HDAC1 isozyme inhibition; details: for SI HDAC1/6: selectivity index
[4] = biological target: T1, HDAC10 (Homo sapiens, UniProt Q969S8); assay: HDAC10 isozyme inhibition; details: for SI HDAC10/6: selectivity index
T1 sequence (Q969S8 1-669): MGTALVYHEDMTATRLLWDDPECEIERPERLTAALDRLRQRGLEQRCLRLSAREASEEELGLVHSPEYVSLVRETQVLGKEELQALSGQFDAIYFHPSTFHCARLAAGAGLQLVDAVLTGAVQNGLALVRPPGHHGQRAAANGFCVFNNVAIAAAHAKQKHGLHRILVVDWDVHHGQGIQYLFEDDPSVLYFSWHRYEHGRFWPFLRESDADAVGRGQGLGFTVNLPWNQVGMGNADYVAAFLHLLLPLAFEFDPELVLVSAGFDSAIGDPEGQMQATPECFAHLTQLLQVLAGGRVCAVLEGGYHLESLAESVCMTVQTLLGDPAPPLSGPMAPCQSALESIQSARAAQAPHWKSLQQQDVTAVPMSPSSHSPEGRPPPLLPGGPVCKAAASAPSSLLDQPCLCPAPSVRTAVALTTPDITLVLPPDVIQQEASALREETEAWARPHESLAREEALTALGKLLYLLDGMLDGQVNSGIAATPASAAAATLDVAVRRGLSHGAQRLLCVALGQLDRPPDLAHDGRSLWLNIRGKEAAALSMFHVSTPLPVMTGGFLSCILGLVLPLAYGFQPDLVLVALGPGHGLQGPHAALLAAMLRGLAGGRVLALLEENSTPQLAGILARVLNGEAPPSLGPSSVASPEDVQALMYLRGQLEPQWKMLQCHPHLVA

[5] = biological target: T2, HDAC6 (Homo sapiens, UniProt Q9UBN7); assay: HDAC6 isozyme inhibition; details: for IC50: read-out: HDAC Isoform, IC50, Class II, 6, duplicate, 10-dose IC50 mode, 3-fold serial dilution starting at 30 μM, average ± standard deviation; for selectivity over HDAC1 and HDAC3: HDAC6 versus HDAC1 and HDAC3; for selectivity over HDAC2 and HDAC10: HDAC6 versus HDAC2 and HDAC10
T2 sequence (Q9UBN7 1-1215): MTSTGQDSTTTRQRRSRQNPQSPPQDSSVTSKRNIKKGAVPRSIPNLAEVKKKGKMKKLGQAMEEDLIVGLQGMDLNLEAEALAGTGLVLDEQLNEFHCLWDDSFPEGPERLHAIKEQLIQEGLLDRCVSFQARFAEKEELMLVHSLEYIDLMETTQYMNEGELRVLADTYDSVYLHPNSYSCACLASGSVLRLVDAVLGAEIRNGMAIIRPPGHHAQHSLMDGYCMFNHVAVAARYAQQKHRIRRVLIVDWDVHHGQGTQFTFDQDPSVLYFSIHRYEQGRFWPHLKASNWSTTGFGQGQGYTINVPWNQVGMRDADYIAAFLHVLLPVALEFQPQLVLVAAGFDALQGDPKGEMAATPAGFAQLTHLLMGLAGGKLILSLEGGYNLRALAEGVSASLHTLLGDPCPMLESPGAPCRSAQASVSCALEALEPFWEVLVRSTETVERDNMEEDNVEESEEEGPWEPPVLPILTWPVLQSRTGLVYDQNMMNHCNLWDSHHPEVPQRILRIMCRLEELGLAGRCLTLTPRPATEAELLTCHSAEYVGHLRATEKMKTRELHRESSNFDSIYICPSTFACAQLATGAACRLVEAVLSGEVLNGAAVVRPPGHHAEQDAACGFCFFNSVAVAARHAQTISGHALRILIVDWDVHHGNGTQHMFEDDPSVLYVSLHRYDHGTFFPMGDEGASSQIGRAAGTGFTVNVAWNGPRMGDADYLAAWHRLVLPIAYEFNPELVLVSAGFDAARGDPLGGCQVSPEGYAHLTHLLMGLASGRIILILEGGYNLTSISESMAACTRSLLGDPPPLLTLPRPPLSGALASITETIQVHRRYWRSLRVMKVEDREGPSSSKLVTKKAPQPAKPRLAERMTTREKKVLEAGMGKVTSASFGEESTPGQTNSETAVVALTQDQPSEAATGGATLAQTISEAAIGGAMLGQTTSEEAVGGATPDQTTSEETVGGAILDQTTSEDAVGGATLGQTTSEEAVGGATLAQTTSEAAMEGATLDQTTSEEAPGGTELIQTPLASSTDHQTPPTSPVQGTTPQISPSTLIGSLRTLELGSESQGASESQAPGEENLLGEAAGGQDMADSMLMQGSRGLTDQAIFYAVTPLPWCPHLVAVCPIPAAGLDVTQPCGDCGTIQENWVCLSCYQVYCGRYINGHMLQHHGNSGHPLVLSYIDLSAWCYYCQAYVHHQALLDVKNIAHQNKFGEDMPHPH

[6] = read-out: HDAC Isoform, IC50, Class I, 2, singlet, 10-dose IC50 mode, 3-fold serial dilution starting at 30 μM, >50000 = no inhibition at 50 μM
[7] = read-out: HDAC Isoform, IC50, Class II, 10, singlet, 10-dose IC50 mode, 3-fold serial dilution starting at 30 μM, >50000 = no inhibition at 50 μM
[8] = read-out: HDAC Isoform, IC50, Class I, 3, singlet, 10-dose IC50 mode, 3-fold serial dilution starting at 30 μM, >50000 = no inhibition at 50 μM
[9] = read-out: HDAC Isoform, IC50, Class I, 1, singlet, 10-dose IC50 mode, 3-fold serial dilution starting at 30 μM, >50000 = no inhibition at 50 μM

Chain of HDAC2 (Q92769 whole entry): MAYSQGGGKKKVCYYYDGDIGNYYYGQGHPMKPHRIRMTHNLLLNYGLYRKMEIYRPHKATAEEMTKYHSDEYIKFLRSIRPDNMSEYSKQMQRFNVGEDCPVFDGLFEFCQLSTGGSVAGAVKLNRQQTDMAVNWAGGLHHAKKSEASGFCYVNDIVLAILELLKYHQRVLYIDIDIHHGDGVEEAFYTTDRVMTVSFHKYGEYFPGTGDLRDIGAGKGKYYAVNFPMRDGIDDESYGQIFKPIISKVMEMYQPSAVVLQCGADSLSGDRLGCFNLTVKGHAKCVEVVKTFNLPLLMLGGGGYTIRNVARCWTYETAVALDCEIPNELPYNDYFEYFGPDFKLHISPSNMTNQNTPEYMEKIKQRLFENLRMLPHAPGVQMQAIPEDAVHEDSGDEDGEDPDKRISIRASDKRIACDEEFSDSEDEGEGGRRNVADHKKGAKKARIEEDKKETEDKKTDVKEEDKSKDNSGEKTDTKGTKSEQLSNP
Chain of HDAC1 (Q13547 whole entry): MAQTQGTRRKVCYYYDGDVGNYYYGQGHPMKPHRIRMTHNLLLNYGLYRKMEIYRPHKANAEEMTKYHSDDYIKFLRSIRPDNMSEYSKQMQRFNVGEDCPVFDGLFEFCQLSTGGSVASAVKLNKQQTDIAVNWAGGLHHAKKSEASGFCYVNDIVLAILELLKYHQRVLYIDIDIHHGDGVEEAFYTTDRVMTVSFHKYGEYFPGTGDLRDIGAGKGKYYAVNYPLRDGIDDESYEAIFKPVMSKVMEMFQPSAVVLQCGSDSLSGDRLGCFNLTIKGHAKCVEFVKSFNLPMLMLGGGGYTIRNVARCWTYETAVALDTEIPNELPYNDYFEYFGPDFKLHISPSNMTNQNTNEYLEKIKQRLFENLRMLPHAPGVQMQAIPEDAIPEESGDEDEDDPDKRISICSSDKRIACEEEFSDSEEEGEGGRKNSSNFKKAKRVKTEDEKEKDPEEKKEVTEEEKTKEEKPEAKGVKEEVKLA
Chain of HDAC3 (O15379 whole entry): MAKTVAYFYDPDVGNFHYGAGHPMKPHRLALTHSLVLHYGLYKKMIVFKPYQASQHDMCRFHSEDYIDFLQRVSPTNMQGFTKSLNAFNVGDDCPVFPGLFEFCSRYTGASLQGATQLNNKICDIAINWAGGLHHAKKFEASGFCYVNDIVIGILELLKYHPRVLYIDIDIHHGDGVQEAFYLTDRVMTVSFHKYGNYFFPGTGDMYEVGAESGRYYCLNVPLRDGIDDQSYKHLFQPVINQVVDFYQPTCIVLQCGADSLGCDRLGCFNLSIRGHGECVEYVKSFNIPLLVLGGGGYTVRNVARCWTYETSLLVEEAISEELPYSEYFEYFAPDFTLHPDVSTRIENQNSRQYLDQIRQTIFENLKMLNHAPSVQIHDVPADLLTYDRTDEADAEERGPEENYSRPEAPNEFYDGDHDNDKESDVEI
Chain of HDAC3 (Q9Y618 395-489 partner limits assumed): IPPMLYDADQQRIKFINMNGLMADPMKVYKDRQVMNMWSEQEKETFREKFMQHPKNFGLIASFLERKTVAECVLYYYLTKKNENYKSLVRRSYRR

| SMILES | SI HDAC3/6 [1] | SI HDAC2/6 [2] | SI HDAC1/6 [3] | SI HDAC10/6 [4] | other results |
| --- | --- | --- | --- | --- | --- |
| CC(C)(C)OC(=O)Nc1ccc(-c2csc(NC(=O)CCCc3cc(C(=O)NO)no3)n2)cc1 [Compound 3, N-[4-[2-[4-[3-(N-Hydroxycarbamoyl)isoxazol-5-yl]butyrylamino]thiazol-4-yl]phenyl]carbamic Acid tert-Butyl Ester] | 11 | 28 | 10 | – | – |
| CCOC(=O)Nc1cccc(-c2csc(NC(=O)CCc3cc(C(=O)NO)no3)n2)c1 [Compound 5, N-[3-[2-[3-[3-(N-Hydroxycarbamoyl)isoxazol-5-yl]propionylamino]thiazol-4-yl]phenyl]carbamic Acid Ethyl Ester] | 32 | 333 | 80 | 82 | – |
| CC(C)(C)OC(=O)Nc1ccc(-c2cc(C(=O)NCCc3cc(C(=O)NO)no3)no2)cc1 [Compound 6, N-[4-[3-[N-[2-[3-(N-Hydroxycarbamoyl)isoxazol-5-yl]ethyl]carbamoyl]isoxazol-5-yl]phenyl]carbamic Acid tert-Butyl Ester] | 3800 | – | 2817 | – | IC50 [2, 6]: > 50 µM; IC50 [4, 7]: > 50 µM; selectivity for HDAC6 over all other isoforms ([5]; Table S1 in the supporting information (not available)): highly selective |
| CC(C)(C)OC(=O)Nc1cccc(-c2cc(C(=O)NCCc3cc(C(=O)NO)no3)no2)c1 [Compound 7] | – | – | – | – | IC50 [1, 8]: > 50 µM; IC50 [2, 6]: > 50 µM; IC50 [4, 7]: > 50 µM; IC50 [3, 9]: > 50 µM; IC50 [5]: 0.0077 ± 0.0008 µM |
| CCOC(=O)Nc1ccc(-c2cc(C(=O)NCCc3cc(C(=O)NO)no3)no2)cc1 [Compound 8, N-[4-[3-[N-[2-[3-(N-Hydroxycarbamoyl)isoxazol-5-yl]ethyl]carbamoyl]isoxazol-5-yl]phenyl]carbamic Acid Ethyl Ester] | 51 | 409 | 39 | 123 | – |
| Nc1cccc(-c2cc(C(=O)NCCc3cc(C(=O)NO)no3)no2)c1 [Compound 9, 5-(3-Aminophenyl)-N-[2-[3-(N-hydroxycarbamoyl)isoxazol-5-yl]ethyl]isoxazole-3-carboxamide] | 105 | 140 | 398 | 315 | – |
| CC(C)(C)C(=O)Nc1cccc(-c2cc(C(=O)NCCc3cc(C(=O)NO)no3)no2)c1 [Compound 10, 5-[2-[[5-[3-[(2,2-Dimethylpropionyl)amino]phenyl]isoxazole-3-carbonyl]amino]ethyl]isoxazole-3-carbohydroxyamic Acid] | – | – | – | 1910 | IC50 [1, 8]: > 50 µM; IC50 [2, 6]: > 50 µM; IC50 [4, 7]: 40.1 µM; IC50 [3, 9]: > 50 µM; selectivity index (SI) ([5]; HDAC6 over the other isoforms tested): at least 1900; IC50 [5]: 0.0212 ± 0.0009 µM |
| O=C(NO)c1cc(CCNC(=O)c2cc(-c3cccc(NC(=O)C4CCCCC4)c3)on2)on1 [Compound 11, 5-[3-[(Cyclohexanecarbonyl)amino]phenyl]-N-[2-[3-(N-hydroxycarbamoyl)isoxazol-5-yl]ethyl]isoxazole-3-carboxamide] | – | – | – | – | IC50 [1]: > 50 µM; IC50 [2]: > 50 µM; IC50 [4]: > 50 µM; IC50 [3]: > 50 µM |

Second part, led by results:

| SI HDAC3/6 [1] | SI HDAC2/6 [2] | SI HDAC1/6 [3] | SI HDAC10/6 [4] | SMILES | other results |
| --- | --- | --- | --- | --- | --- |
| 1600 | 2360 | 666 | 1050 | O=C(Nc1cccc(-c2cc(C(=O)NCCc3cc(C(=O)NO)no3)no2)c1)c1ccccc1 [Compound 12, 5-[3-(Benzoylamino)phenyl]-N-[2-[3-(N-hydroxycarbamoyl)isoxazol-5-yl]ethyl]isoxazole-3-carboxamide] | – |
| 409 | 5760 | 1320 | 9580 | CC(C)(C)OC(=O)Nc1ccc(-c2cc(C(=O)NCc3ccc(C(=O)NO)cc3)no2)cc1 [Compound 13, N-[4-[3-[N-[4-(N-Hydroxycarbamoyl)benzyl]carbamoyl]isoxazol-5-yl]phenyl]carbamic Acid tert-Butyl Ester] | selectivity over HDAC1 and HDAC3 [5]: at least 400 fold; selectivity over HDAC2 and HDAC10 [5]: more than 3 orders of magnitude |
| 1230 | 2160 | 694 | 4270 | CC(C)(C)OC(=O)Nc1cccc(-c2cc(C(=O)NCc3ccc(C(=O)NO)cc3)no2)c1 [Compound 14, N-[3-[3-[N-[4-(N-Hydroxycarbamoyl)benzyl]carbamoyl]isoxazol-5-yl]phenyl]carbamic Acid tert-Butyl Ester] | selectivity over HDAC1 and HDAC3 [5]: at least 400 fold; selectivity over HDAC2 and HDAC10 [5]: more than 3 orders of magnitude |
| 40 | 461 | 65 | 38 | O=C(NO)c1ccc(CNC(=O)c2cc(-c3ccc(NC(=O)C4CCCCC4)cc3)on2)cc1 [Compound 15, 5-[4-[(Cyclohexanecarbonyl)amino]phenyl]-N-[4-(N-hydroxycarbamoyl)benzyl]isoxazole-3-carboxamide] | – |
| 257 | 1650 | 82 | 73 | O=C(NO)c1ccc(CNC(=O)c2cc(-c3cccc(NC(=O)C4CCCCC4)c3)on2)cc1 [Compound 16, 5-[3-[(Cyclohexanecarbonyl)amino]phenyl]-N-[4-(N-hydroxycarbamoyl)benzyl]isoxazole-3-carboxamide] | – |
| 798 | 2280 | 825 | 37000 | O=C(NO)c1ccc(CNC(=O)c2cc(Cn3c4ccccc4c4ccccc43)on2)cc1 [Compound 18, 5-(9H-Carbazol-9-ylmethyl)-N-[4-(hydroxycarbamoyl)benzyl]isoxazole-3-carboxamide] | – |
